Measured values reported in patent US5403932A, “Phosphoramidates useful as antitumor agents” (Research Corporation Technologies, Inc., priority 1994, dated 1995).
Where two headings read alike, the source gives them in different places.

Legend:
B16 melanoma cells = experiment: Cytotoxicity against B16 melanoma cells, colony formation; assay type: cell-based; conditions: B16 mouse melanoma, 2 h treatment; read-out: Drug Concentration required to kill 90% of Clonogenic Tumor Cells In Vitro (LC90), B/16
Description: B16 melanoma cells in exponential growth (2-3×10^6 cells in 10 ml of serum-free MEM medium) were treated with drug for 2 hr. The cells were separated, washed, and resuspended in MEM medium supplemented with 10% fetal bovine serum. The cells were plated in 60-mm culture dishes at a density of 50-50,000 cells/plate (depending upon the drug concentration used) and then incubated for 8 days in a CO2 incubator at 37°. The colonies were fixed and stained with 0.5% crystal violet in ethanol and counted. The log of the surviving fraction was plotted against drug concentration, and from this plot the concentration required to reduce the colony number to 10% of control (LC90) was determined.

[1] = system: HT29 human colon cancer cells; experiment: Aerobic and hypoxic selectivity against human colon cancer HT29 cells, colony formation; assay type: cell-based; conditions: 4 h
Description: HT29 human colon cancer cells were maintained in exponential growth in α-MEM medium supplemented with 10% fetal bovine serum and 25 mM HEPES buffer, and cultured at 37° C. and 3% CO2. For drug treatments, 1-2×10^6 cells in 10 ml of medium were transferred to glass reaction vials. For the hypoxic experiments, the medium was first gassed for 3 hr with 95% nitrogen/5% CO2 to achieve a partial pressure of oxygen <100 ppm. These cell suspensions were then treated with drug at different concentrations under either aerobic or hypoxic conditions for 4 hr in the reaction vials. The medium was removed, the cells were washed, and a colony formation assay was carried out as described above in Example 15. Colonies with […] 50 cells were counted 12-14 days after plating. The log of the surviving fraction was plotted against drug concentration, and from this plot the concentration required to reduce the colony number to 10% of control (LC90) was determined. The results of this test on representative compounds of the present invention are depicted in Table 4.

[2] = system: L1210/O (cyclophosphamide sensitive) murine leukemia cells; experiment: Soft agar colony-forming assay, in vitro cytotoxicity against cyclophosphamide-sensitive L1210 murine leukemia; assay type: cell-based, mouse; conditions: 1 h at 37°, 99% cell kill
Description: (§1) The In Vitro cytotoxic activity of representative compounds under hypoxic and aerobic conditions were evaluated as follows.
(§2) A soft agar colony-forming assay according to the procedure of Chu and Fischer, Biochem. Pharmacol., 17, 753-767 (1968) was used and modified where necessary. Cultured mouse L1210 and P388 sensitive cells were purchased from EG&G Mason Research Institute, Tumor Bank, Worchester, Ma. Cultured cyclophosphamide resistant L1210 and P388 cells were obtained from Dr. Robert Struck of Southern Research Institute, Birmingham, Ala. Typically, the desired cells (2-3×10^6 cells/ml) in exponential growth and suspended in 6.5 ml of Fischer's medium (Gibco Lab., Grand Island, N.Y.) were divided into six groups (1 control and 5 treated groups) containing an equal number of cells in 1 ml. These cells were then treated with varying doses of drug diluted with media to give a total volume of 10 ml, and incubated for one hour at 37° C. The cells were washed three times with 3 ml of supplemented Fischer's medium (containing 10% horse serum) by centrifuge (800×g), removal of media by suction, and resuspension of the pellet in media (5 ml). A 1-ml portion was used to determine the cell count with a Coulter counter. From the remainder, a 5-ml suspension of cells was prepared at a density of 10^5 cells/ml, and between 10^2 and 10^5 cells were placed on soft agar and incubated at 37° C. Colonies were counted after 10 days. The log of the surviving fraction was plotted vs. drug concentration and from this plot the LC99 was obtained. (By definition, the LC99 value represents the concentration of drug necessary to effect a 99% cell kill.)

[3] = system: L1210/CP (cyclophosphamide resistant) murine leukemia cells; experiment: Soft agar colony-forming assay, in vitro cytotoxicity against cyclophosphamide-resistant L1210 murine leukemia; assay type: cell-based, mouse; conditions: 1 h at 37°, 99% cell kill
Description: as §1
as §2, with “From the remainder, a 5-ml suspension of cells was prepared at a density of 10^5 cells/ml, and between 10^2 and 10^5 cells were placed on soft agar and incubated at 37° C.” left out, “The log of the surviving fraction was plotted vs. drug concentration and from this plot the LC99 was obtained. (By definition, the LC99 value represents the concentration of drug necessary to effect a 99% cell kill.)” left out

[4] = system: P388/O (cyclophosphamide sensitive) murine leukemia cells; experiment: Soft agar colony-forming assay, in vitro cytotoxicity against cyclophosphamide-sensitive P388 murine leukemia; assay type: cell-based, mouse; conditions: 1 h at 37°, 99% cell kill
Description: as §1, §2

[5] = system: P388/CP (cyclophosphamide resistant) murine leukemia cells; experiment: Soft agar colony-forming assay, in vitro cytotoxicity against cyclophosphamide-resistant P388 murine leukemia; assay type: cell-based, mouse; conditions: 1 h at 37°, 99% cell kill
Description: as §1
as §2, with “From the remainder, a 5-ml suspension of cells was prepared at a density of 10^5 cells/ml, and between 10^2 and 10^5 cells were placed on soft agar and incubated at 37° C.” left out, “The log of the surviving fraction was plotted vs. drug concentration and from this plot the LC99 was obtained. (By definition, the LC99 value represents the concentration of drug necessary to effect a 99% cell kill.)” left out

[6] = system: KHT/iv cells (mouse KHT sarcoma); experiment: Hypoxic cell selectivity using KHT/iv cells, clonogenic assay; assay type: cell-based; conditions: 4 h at 37°; for LC99, Aerobic: aerobic (95:5 air:CO2); for LC99, Hypoxic: hypoxic (95:5 nitrogen:CO2)
Description: KHT/iv cells were adapted to cell culture from tile mouse KHT sarcoma by Dietmar Siemann, University of Rochester. Cells were maintained in Eagle's basal medium and 10% fetal calf serum for all experiments. Cells in exponential growth were trypsinized from monolayer cultures and separated from one another by agitation in a gas-tight syringe at a density of 1-2×10^7 cells/ml for 15 minutes at 37°. The cells were then resuspended in HEPES-buffered Eagle's medium contained in stirred gas-tight vials at a final density of 2×10^7 cells/ml; before cells or drugs were added, the vials were pre-equilibrated with humidified gas having tile composition 95:5 air:CO2 for aerobic treatment or 95:5 nitrogen:CO2 from hypoxic treatment. Oxygen tension in the hypoxic medium was approximately 100 ppm after tile equilibration period. Drug was dissolved a volume of ethanol that would give a final ethanol concentration of 1% in the medium; this concentration of ethanol had no effect on the plating efficiency of control cell preparations. Cells were incubated with drug under aerobic or hypoxic conditions at 37° for 4 hours. The cells were then removed from the vials, washed with drug-free medium, counted, and plated for cell survival using a standard clonogenic assay. Cell surviving fraction was plotted vs. drug concentration, and the LC99 values were obtained from the least squares equation.

[7] = Table 3, aerobic, read-out: Drug Concentration required to kill 90% of Clonogenic Tumor Cells In Vitro (LC90), HT29 Aerobic
[8] = Table 3, hypoxic (95% nitrogen/5% CO2), read-out: Drug Concentration required to kill 90% of Clonogenic Tumor Cells In Vitro (LC90), HT29 Hypoxic
[9] = Table 4, aerobic, read-out: Drug Concentration required to kill 90% of Clonogenic Tumor Cells In Vitro (LC90), HT29 Aerobic
[10] = Table 4, hypoxic (95% nitrogen/5% CO2), read-out: Drug Concentration required to kill 90% of Clonogenic Tumor Cells In Vitro (LC90), HT29 Hypoxic

CN(C)CCOC(=O)CC(OP(=O)(N(CCCl)CCCl)N(CCCl)CCCl)c1ccc([N+](=O)[O-])s1 (centres unmarked) [Compound 14, O-(1-(5-nitro-2-thiophene)-2-(2-N,N-dimethylaminoethoxycarbonyl)ethyl)-N,N,N'N'-tetrakis-(2-chloroethyl)-phosphoramide]
IC90 (B16 melanoma cells): 2.8 µM | IC90 [1, 7]: 7.5 µM | IC90 [1, 8]: 3 µM

CCOC(=O)CC(OP(=O)(N(CCCl)CCCl)N(CCCl)CCCl)c1ccc([N+](=O)[O-])s1 (centres unmarked) [Compound 15, O-(1-(5-nitro-2-thiophene)-2-carbethoxyethyl)-N,N,N'N'-tetrakis(2-chloroethyl)phosphoramide]
IC90 (B16 melanoma cells): 3 µM

COC(=O)CC(OP(N)(=O)N(CCCl)CCCl)c1ccc([N+](=O)[O-])cc1 (centres unmarked) [4-NO2 Ph, methyl 3-(4-nitrophenyl)-3-(N,N-bis-(2-chloroethyl)phosphorodiamido) propionate]
LC99 [2]: 138 | LC99 [3]: 152 | LC99 [4]: 82 | LC99 [5]: 77

CC(OP(=O)(N(CCCl)CCCl)N(CCCl)CCCl)c1ccc([N+](=O)[O-])cc1 (centres unmarked)
IC90 [1, 9]: > 500 µM | IC90 [1, 10]: 45 µM

NP(=O)(OCc1ccccc1[N+](=O)[O-])N(CCCl)CCCl (centres unmarked) [Compound 2-nitro]
LC99, Aerobic [6]: 700 | LC99, Hypoxic [6]: 230

CCOC(=O)CC(OP(=O)(N(CCCl)CCCl)N(CCCl)CCCl)c1cc([N+](=O)[O-])ccn1 (centres unmarked) [Compound 17, O-(1-(4-nitro-2-pyridyl)-2-carbethoxyethyl)-N,N,N',N'-tetrakis(2-Chloroethyl)phosphoramide]
IC90 (B16 melanoma cells): 50 µM | IC90 [1, 7]: 80 µM | IC90 [1, 8]: 35 µM

COC(=O)CC(OP(N)(=O)N(CCCl)CCCl)c1ccccc1[N+](=O)[O-] (centres unmarked) [2-NO2 Ph, methyl 3-(2-nitrophenyl)-3-(N,N-bis(2-chloroethyl)phosphorodiamido)propionate]
LC99 [2]: 172 | LC99 [4]: 134

CCOC(=O)CC(OP(=O)(N(CCCl)CCCl)N(CCCl)CCCl)c1ccc([N+](=O)[O-])c(C)n1 (centres unmarked) [Compound 16, O-(1(6-methyl-5-nitro-2-pyridyl)-2-carbethoxyethyl)-N,N,N'N'-tetrakis(2-chloroethyl)phosphoramide]
IC90 (B16 melanoma cells): 150 µM | IC90 [1, 7]: 110 µM | IC90 [1, 8]: 25 µM

NP(=O)(OCc1ccc([N+](=O)[O-])cc1)N(CCCl)CCCl (centres unmarked) [Compound 4-nitro]
LC99, Aerobic [6]: 320 | LC99, Hypoxic [6]: 120

CN(C)CCOC(=O)CC(OP(=O)(N(CCCl)CCCl)N(CCCl)CCCl)c1ccc([N+](=O)[O-])cc1 (centres unmarked) [Compound 13, O-(1-(4-nitrophenyl)-2-(2-N,N-dimethylaminoethoxycarbonyl)ethyl)-N,N,N'N'-tetrakis-(2-chloroethyl)phosphoramide]
IC90 (B16 melanoma cells): < 2 µM | IC90 [1, 7]: 60 µM | IC90 [1, 8]: 35 µM

COC(=O)CC(OP(N)(=O)N(CCCl)CCCl)c1ccccc1 (centres unmarked) [Ph, reference compound]
LC99 [2]: 350 | LC99 [4]: 300

CCOC(=O)CC(OP(=O)(N(CCCl)CCCl)N(CCCl)CCCl)c1ccc([N+](=O)[O-])cc1 (centres unmarked) [Compound 12, O-(1-(4-nitrophenyl)-2-carbethoxyethyl)-N,N,N',N'-tetrakis(2-chloroethyl)phosphoramide]
IC90 (B16 melanoma cells): > 100 µM | IC90 [1, 7]: 80 µM | IC90 [1, 8]: 12 µM

CCOC(=O)CC(OP(N)(=O)N(CCCl)CCCl)c1cc(CN(C)C)cc2cc([N+](=O)[O-])cnc12 (centres unmarked)
IC90 [1, 9]: 700 µM | IC90 [1, 10]: 95 µM
